Data published in patent US20230114241A1, “METHODS OF TREATING EPILEPSY USING THE SAME” (Trevena, Inc., priority 2019, published 2023).

Biological target: human sphingosine-1-phosphate receptor 1 (S1P1) (Homo sapiens, UniProt P21453)
Experiment: Inhibition of cAMP production (HTRF cAMP HiRange), S1P1 CHO-K1 cells
Type: cell-based
Details: inhibition of cAMP production, S1P1; read-out: hS1P1 CAMP pEC50 (converted)
Method in brief: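 CHO-K1 cells co-expressing human S1P1 (C-terminal ProLink tag) and EA-β-arrestin2, plated overnight; after 30 min compound incubation at 37 °C, intracellular cAMP measured by HTRF TR-FRET following 1 h at room temperature. Values normalized to fingolimod.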

human sphingosine-1-phosphate receptor 1 (S1P1), sequence (P21453 whole entry): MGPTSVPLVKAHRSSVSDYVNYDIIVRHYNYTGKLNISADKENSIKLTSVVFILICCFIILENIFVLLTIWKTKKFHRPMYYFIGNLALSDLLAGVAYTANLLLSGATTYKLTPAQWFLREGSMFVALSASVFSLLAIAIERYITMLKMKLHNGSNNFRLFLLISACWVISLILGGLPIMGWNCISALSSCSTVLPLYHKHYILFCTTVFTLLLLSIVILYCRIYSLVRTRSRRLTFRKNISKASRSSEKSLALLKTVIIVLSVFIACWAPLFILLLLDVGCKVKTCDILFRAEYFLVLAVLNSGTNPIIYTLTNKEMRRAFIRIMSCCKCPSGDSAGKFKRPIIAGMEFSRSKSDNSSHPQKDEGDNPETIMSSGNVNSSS

| EC50 [nM] | SMILES |
| --- | --- |
| < 316 | COc1cc(C)c2nc(-c3ccc4c(c3)nnn4C(C)C)oc2c1 [Compound 436, 2-(1-isopropyl-1H-benzo[d][1,2,3]triazol-5-yl)-6-methoxy-4-methylbenzo[d]oxazole] |
| > 316 | CC(C)n1nnc2cc(-c3nc4c(o3)CCCc3ccccc3-4)ccc21 [Compound 434, 4-[1-(propan-2-yl)-1H-1,2,3-benzotriazol-5-yl]-5-oxa-3-azatricyclo[8.4.0.0^2,6] tetradeca-1(14),2(6),3,10,12-pentaene] |
| < 316 | COc1ccc2oc(-c3ccc4c(c3)nnn4CC(C)C)nc2c1 [Compound 451, 2-(1-isobutyl-1H-benzo[d][1,2,3]triazol-5-yl)-5-methoxy-benzo[d]oxazole] |
| < 316 | CCC1(CC)CC(=O)c2cc(-c3nc(-c4ccc(NC(C)=O)cc4OC(F)(F)F)no3)ccc2O1 [Compound 584, N-{4-[5-(2,2-diethyl-4-oxo-3,4-dihydro-2H-1-benzopyran-6-yl)-1,2,4-oxadiazol-3-yl]-3-(trifluoromethoxy)phenyl}acetamide] |
| > 316 | Cc1ccccc1-c1c[nH]c(-c2ccc3c(c2)nnn3C(C)C)c1 [Compound 516, 5-[4-(2-methylphenyl)-1H-pyrrol-2-yl]-1-(propan-2-yl)-1H-1,2,3-benzotriazole] |
| < 316 | CNc1ccccc1-c1nc(-c2ccc3c(c2)nnn3C(C)C)no1 [Compound 599, N-methyl-2-{3-[1-(propan-2-yl)-1H-l,2,3-benzotriazol-5-yl]-1,2,4-oxadiazol-5-yl}aniline] |
| > 316 | COc1ccccc1-c1nc(-c2ccc3c(c2)nnn3C(C)(C)CO)no1 [Compound 623, 2-(5-(5-(2-methoxy-phenyl)-1,2,4-oxadiazol-3-yl)-1H-benzo[d][1,2,3]triazol-1-yl)-2-methyl-propan-1-ol] |
| < 316 | CC(C)n1nnc2cc(-c3nc(-c4ccc5nc[nH]c5c4)no3)ccc21 [Compound 511, 5-[3-(1H-1,3-benzodiazol-6-yl)-1,2,4-oxadiazol-5-yl]-1-(propan-2-yl)-1H-1,2,3-benzotriazole] |
| < 316 | Cc1ccc2nc(-c3ccc4c(c3)nnn4C(C)C)oc2c1 [Compound 420, 2-(1-isopropyl-1H-benzo[d][1,2,3]triazol-5-yl)-6-methyl-benzo[d]oxazole] |

Same assay, conditions: inhibition of cAMP production; potency; read-out: hS1P1 CAMP pEC50 (converted)

| EC50 [nM] | SMILES |
| --- | --- |
| > 316 | CCC1(CC)CC(=O)c2cc(-c3nc(-c4ccc(OC)nc4)no3)ccc2O1 [Compound 301, 2,2-diethyl-6-[3-(6-methoxy-3-pyridyl)-1,2,4-oxadiazol-5-yl]chroman-4-one] |
| > 316 | CCC1(CC)CC(=O)c2cc(-c3nc(-c4ccc(C)cc4)no3)ccc2O1 [Compound 269, 2,2-diethyl-6-[3-(p-tolyl)-1,2,4-oxadiazol-5-yl]chroman-4-one] |
| > 316 | Brc1ccccc1-c1nc(-c2ccc3[nH]nnc3c2)no1 [Compound 97, 3-(1H-benzo[d][1,2,3]triazol-5-yl)-5-(2-bromophenyl)-1,2,4-oxadiazole] |
| > 316 | CC(C)n1nnc2cc(-c3noc(-c4ccccc4OC(F)(F)F)n3)ccc21 [Compound 240, 3-(1-isopropyl-1H-benzo[d][1,2,3]triazol-5-yl)-5-(2-(trifluoro-methoxy)phenyl)-1,2,4-oxadiazole] |
| < 316 | COc1ccccc1-c1noc(-c2ccc3c(c2)nnn3C(C)(C)C)n1 [Compound 207, 1-tert-butyl-5-[3-(2-methoxyphenyl)-1,2,4-oxadiazol-5-yl]-1H-1,2,3-benzotriazole] |
| < 316 | C=CCNc1ccc(-c2nc(-c3ccc(NS(C)(=O)=O)cc3)no2)cc1C#N [Compound 149, N-(4-(5-(4-(allylamino)-3-cyanophenyl)-1,2,4-oxadiazol-3-yl)phenyl) methanesulfonamide] |
| > 316 | CCC1(CC)CC(=O)c2cc(-c3nc(-c4ccccc4O)no3)ccc2O1 [Compound 187, 2,2-diethyl-6-[3-(2-hydroxyphenyl)-1,2,4-oxadiazol-5-yl]chroman-4-one] |
| > 316 | CC(C)n1ccc2cc(-c3nc(-c4ccccc4OC(F)(F)F)no3)ccc21 [Compound 321, 5-(1-isopropyl-1H-indol-5-yl)-3-(2-(trifluoro-methoxy)phenyl)-1,2,4-oxadiazole] |
| > 316 | Cc1ccc(-c2nc(-c3ccc4c(c3)nnn4C(C)C)no2)cn1 [Compound 119, 3-(1-isopropyl-1H-benzo[d][1,2,3]triazol-5-yl)-5-(6-methyl-pyridin-3-yl)-1,2,4-oxadiazole] |
| < 316 | Brc1ccccc1-c1nc(-c2ccc3c(c2)nnn3C2CCCCC2)no1 [Compound 115, 5-(2-bromophenyl)-3-(1-cyclohexyl-1H-benzo[d][1,2,3]triazol-5-yl)-1,2,4-oxadiazole] |
| < 316 | CC(C)n1nnc2cc(-c3nc(-c4ccccc4Br)no3)ccc21 [Compound 282, 5-[3-(2-bromophenyl)-1,2,4-oxadiazol-5-yl]-1-(propan-2-yl)-1H-1,2,3-benzotriazole] |
| > 316 | COc1cccc(F)c1-c1noc(-c2ccc3c(c2)nnn3C(C)C)n1 [Compound 260, 3-(2-fluoro-6-methoxy-phenyl)-5-(1-isopropylbenzo-triazol-5-yl)-1,2,4-oxadiazole] |
| < 316 | Brc1ccccc1-c1noc(-c2ccc3c(c2)nnn3C2CC2)n1 [Compound 83, 5-[3-(2-bromophenyl)-1,2,4-oxadiazol-5-yl]-1-cyclopropyl-1H-1,2,3-benzotriazole] |
| > 316 | CC(C)n1nnc2cc(-c3nc(-c4ccc(Cl)s4)no3)ccc21 [Compound 170, 5-[3-(5-chlorothiophen-2-yl)-1,2,4-oxadiazol-5-yl]-1-(propan-2-yl)-1H-1,2,3-benzotriazole] |
| < 316 | CC(=O)Nc1ccc(-c2noc(-c3ccc(NC(C)C)c(C#N)c3)n2)cc1 [Compound 316, N-(4-(5-(3-cyano-4-(isopropylamino)phenyl)-1,2,4-oxadiazol-3-yl)phenyl)acetamide] |
| > 316 | COc1ccc(-c2noc(-c3ccc4c(c3)nnn4C3CCCCC3)n2)cc1C(F)(F)F [Compound 284, 1-cyclohexyl-5-{3-[4-methoxy-3-(trifluoro-methyl)phenyl]-1,2,4-oxadiazol-5-yl}-1H-1,2,3-benzotriazole] |

| EC50 [nM] | SMILES |
| --- | --- |
| < 316 | Cc1ccccc1-c1noc(-c2ccc3c(c2)nnn3CC(F)F)n1 [Compound 182, 1-(2,2-difluoroethyl)-5-[3-(2-methylphenyl)-1,2,4-oxadiazol-5-yl]-1H-1,2,3-benzotriazole] |
| > 316 | COc1cc(-c2nc(-c3ccc4c(c3)nnn4C(C)C)no2)ccn1 [Compound 116, 3-(1-isopropyl-1H-benzo[d][1,2,3]triazol-5-yl)-5-(2-methoxypyridin-4-yl)-1,2,4-oxadiazole] |
| > 316 | CCC1(CC)CC(=O)c2cc(-c3nc(-c4ccncc4)no3)ccc2O1 [Compound 27, 2,2-diethyl-6-[3-(pyridin-4-yl)-1,2,4-oxadiazol-5-yl]-3,4-dihydro-2H-1-benzopyran-4-one] |
| > 316 | CC(C)n1nnc2cc(-c3nc(Cc4ccccc4)no3)ccc21 [Compound 88, 5-(3-benzyl-1,2,4-oxadiazol-5-yl)-1-(propan-2-yl)-1H-1,2,3-benzotriazole] |
| > 316 | CC(C)n1nnc2cc(-c3nc(-c4ccc5ccccc5n4)no3)ccc21 [Compound 168, 2-{5-[1-(propan-2-yl)-1H-1,2,3-benzotriazol-5-yl]-1,2,4-oxadiazol-3-yl}quinoline] |
| > 316 | O=C1CC2(CCCCC2)Oc2ccc(-c3nc(-c4cccnc4)no3)cc21 [Compound 41, 6-[3-(pyridin-3-yl)-1,2,4-oxadiazol-5-yl]-3,4-dihydrospiro[1-benzopyran-2,1′-cyclohexane]-4-one] |
| > 316 | CC(C)n1nnc2cc(-c3nc(-c4ccccc4)co3)ccc21 [Compound 294, 5-(4-phenyl-1,3-oxazol-2-yl)-1-(propan-2-yl)-1H-1,2,3-benzotriazole] |
| < 316 | CCC1(CC)CC(=O)c2cc(-c3nsc(-c4cccnc4)n3)ccc2O1 [Compound 137, 2,2-diethyl-6-(5-(pyridin-3-yl)-1,2,4-thiadiazol-3-yl)chroman-4-one] |
| < 316 | Cc1ccccc1-c1noc(-c2ccc3c(c2)nnn3C2CCCC2)n1 [Compound 175, 1-cyclopentyl-5-[3-(2-methylphenyl)-1,2,4-oxadiazol-5-yl]-1H-1,2,3-benzotriazole] |
| > 316 | CC(C)n1nnc2cc(-c3nc(-c4ccc(OCc5ccccc5)c(C(F)(F)F)c4)no3)ccc21 [Compound 296, 5-{3-[4-(benzyloxy)-3-(trifluoromethyl)phenyl]-1,2,4-oxadiazol-5-yl}-1-(propan-2-yl)-1H-1,2,3-benzotriazole] |
| < 316 | C=CCNc1ccc(-c2nc(-c3ccc4c(c3)nnn4C(C)C)no2)cc1C#N [Compound 150, 2-(allylamino)-5-(3-(1-isopropyl-1H-benzo[d][1,2,3]triazol-5-yl)-1,2,4-oxadiazol-5-yl)benzonitrile] |
| < 316 | Cc1ccncc1-c1noc(-c2ccc3c(c2)nnn3C(C)C)n1 [Compound 101, 5-[3-(4-methylpyridin-3-yl)-1,2,4-oxadiazol-5-yl]-1-(propan-2-yl)-1H-1,2,3-benzotriazole] |
| > 316 | COc1cccc(OC)c1-c1noc(-c2ccc3c(ccn3C(C)C)c2)n1 [Compound 325, 3-(2,6-dimethoxy-phenyl)-5-(1-isopropyl-indol-5-yl)-1,2,4-oxadiazole] |
| > 316 | CCC1(CC)CC(=O)c2cc(-c3nnc(-c4ccccc4OC)s3)ccc2O1 [Compound 178, 2,2-diethyl-6-(5-(2-methoxyphenyl)-1,3,4-thiadiazol-2-yl)chroman-4-one] |
| > 316 | COc1ccc(-c2noc(-c3ccc4c(c3)nnn4C(C)C)n2)c2ccccc12 [Compound 129, 5-[3-(4-methoxy-naphthalen-1-yl)-1,2,4-oxadiazol-5-yl]-1-(propan-2-yl)-1H-1,2,3-benzotriazole] |
